Source: patent US20060210620A1, “Co-precipitated amorphous losartan and dosage forms comprising the same” (priority 2003, published 2006)

Test: Accelerated stability testing at 40° C. and 75% relative humidity, solid form evaluated by X-ray diffraction
Format: physicochemical
Settings: storage time not stated (spectra taken later in time, FIG. 1)
Method: The term “stable” as used herein refers to less than about 5% conversion of the amorphous form of losartan to a crystalline form of losartan when stored at 40° C. and 75 percent relative humidity for three months.
The amorphous solids of the following examples were evaluated for the presence of crystals and/or other degradative products using X-ray diffraction (XRD) techniques, supplemented with infrared and differential scanning calorimetry. The examples are meant to further exemplify the invention and are not intended to limit the scope of the invention.

CCCCc1nc(Cl)c(CO)n1Cc1ccc(-c2ccccc2-c2nn[nH]n2)cc1 [Example 1, losartan potassium]
Solid form (amorphous/crystalline) by XRD after accelerated stability conditions: almost all of the solid material converted to the crystalline form
